Patent US20040147720A1, “Novel guasonine triphosphate-binding protein -coupled receptor place 6002312, its gene and production and use of the same” (priority 2001, published 2004)

Key:
[1] = test system: HEK293 cells (Mock); settings: HEK293 cells (Mock) with pcDNA3.1(−), not expressing PLACE6002312; [^3H]-histamine 0, 40, 80, 160 nM; room temperature 1 hr; FIG. 7
Method: (§1) The ligand-binding assay can serve as a direct method of receptor pharmacology, and is applicable to high-throughput systems. […] First, human embryonic kidney 293 (HEK293) cells were plated on a 10-cm cell culture dish at the cell density of 1×10^6 cells/dish, and incubated in a humidified incubator under 5% CO2 at 37° C. for 24 hr. Then, 10 μg/dish of pcDNA3.1(−)-PLACE6002312 plasmid was transfected by the calcium phosphate method (Mol. Pharm. (1997)-51: 171). After the culturing was continued for 14 hr, the medium was changed with fresh D-MEM containing 10% FBS, and the cells were incubated for another 2 days. After the culturing had completed, the cells were washed with PBS(−), and then suspended in FBS-free D-MEM at the cell density of 1×10^6 cells/ml. The cell suspension were aliquoted (50 μl/well) into flat-bottomed 96-well plate (Sumitomo Bakelite Co.) pre-siliconized with Siliconize L-25 (Fuji Systems). 50-μl aliquots of D-MEM were added to each well, and then radio-labeled [^3H]-histamine was added thereto at the final concentrations of 0, 40, 80, and 160 nM. The plate was incubated at room temperature for 1 hr. Assays for the non-specific binding of [^3H]-histamine were carried out using D-MEM to which unlabeled histamine had been added previously at the final concentration of 1×10^−5 M. […]

[2] = molecular target: PLACE6002312 polypeptide (Homo sapiens, UniProt Q8TDU6); settings: HEK293 cells with pcDNA3.1(−)-PLACE6002312; [^3H]-histamine 0, 40, 80, 160 nM; room temperature 1 hr; non-specific binding with 1×10^−5 M unlabeled histamine; FIG. 7
Method: as §1

Chain of PLACE6002312 polypeptide (Q8TDU6 whole entry): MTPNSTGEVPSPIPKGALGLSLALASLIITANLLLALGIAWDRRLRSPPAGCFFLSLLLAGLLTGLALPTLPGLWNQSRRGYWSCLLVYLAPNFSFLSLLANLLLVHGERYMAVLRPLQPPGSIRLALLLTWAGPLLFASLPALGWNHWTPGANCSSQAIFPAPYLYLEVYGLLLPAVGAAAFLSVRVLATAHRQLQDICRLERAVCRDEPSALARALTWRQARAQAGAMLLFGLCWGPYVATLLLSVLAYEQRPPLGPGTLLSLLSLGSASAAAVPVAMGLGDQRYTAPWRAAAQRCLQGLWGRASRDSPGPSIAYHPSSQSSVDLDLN

NCCc1c[nH]cn1 [histamine]
specific binding to [^3H]-histamine (total binding minus non-specific binding) [1]: undetectable
specific binding to [^3H]-histamine (total binding minus non-specific binding) [2]: detected
